Six molecules from ChEMBL document CHEMBL1145498, “A systematic interaction map of validated kinase inhibitors with Ser/Thr kinases” (Proc Natl Acad Sci U S A, 2007) can be followed below.

Assay [1] concerns the target T1, Serine/threonine-protein kinase 17A (Homo sapiens) (UniProt Q9UEE5).
T1 sequence (whole entry): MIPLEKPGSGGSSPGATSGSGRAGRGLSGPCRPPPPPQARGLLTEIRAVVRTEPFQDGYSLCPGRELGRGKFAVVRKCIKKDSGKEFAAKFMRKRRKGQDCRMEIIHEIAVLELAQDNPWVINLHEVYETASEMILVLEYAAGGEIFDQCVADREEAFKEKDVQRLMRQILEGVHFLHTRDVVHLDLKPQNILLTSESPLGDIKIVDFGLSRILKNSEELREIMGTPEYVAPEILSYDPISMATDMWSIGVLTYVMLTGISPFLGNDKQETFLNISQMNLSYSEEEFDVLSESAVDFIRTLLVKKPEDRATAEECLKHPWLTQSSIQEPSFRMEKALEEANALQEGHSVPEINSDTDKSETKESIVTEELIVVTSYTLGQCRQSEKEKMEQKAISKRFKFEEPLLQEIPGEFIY

Assay [2] concerns the target Serine/threonine-protein kinase VRK2 (Homo sapiens) (UniProt Q86Y07).
In assay [3] the target is Cyclin-dependent kinase-like 1 (Homo sapiens) (UniProt Q00532).
Assay [4] deals with Serine/threonine-protein kinase OSR1 (Homo sapiens) (UniProt O95747).
Assay [5] deals with TRAF2 and NCK-interacting protein kinase (Homo sapiens) (UniProt Q9UKE5).
The target of assay [6] is Calcium/calmodulin-dependent protein kinase type II subunit alpha (Homo sapiens) (UniProt Q9UQM7).
The target of assay [7] is Cyclin-dependent kinase 6 (Homo sapiens) (UniProt Q00534).
Assay [8] deals with Serine/threonine-protein kinase pim-1 (Homo sapiens) (UniProt P11309).
Assay [9] addresses Serine/threonine-protein kinase 26 (Homo sapiens) (UniProt Q9P289).
For assay [10], the target named is Casein kinase I isoform gamma-1 (Homo sapiens) (UniProt Q9HCP0).
Assay [11] addresses T2, Mitogen-activated protein kinase kinase kinase 5 (Homo sapiens) (UniProt Q99683).
T2 sequence (whole entry): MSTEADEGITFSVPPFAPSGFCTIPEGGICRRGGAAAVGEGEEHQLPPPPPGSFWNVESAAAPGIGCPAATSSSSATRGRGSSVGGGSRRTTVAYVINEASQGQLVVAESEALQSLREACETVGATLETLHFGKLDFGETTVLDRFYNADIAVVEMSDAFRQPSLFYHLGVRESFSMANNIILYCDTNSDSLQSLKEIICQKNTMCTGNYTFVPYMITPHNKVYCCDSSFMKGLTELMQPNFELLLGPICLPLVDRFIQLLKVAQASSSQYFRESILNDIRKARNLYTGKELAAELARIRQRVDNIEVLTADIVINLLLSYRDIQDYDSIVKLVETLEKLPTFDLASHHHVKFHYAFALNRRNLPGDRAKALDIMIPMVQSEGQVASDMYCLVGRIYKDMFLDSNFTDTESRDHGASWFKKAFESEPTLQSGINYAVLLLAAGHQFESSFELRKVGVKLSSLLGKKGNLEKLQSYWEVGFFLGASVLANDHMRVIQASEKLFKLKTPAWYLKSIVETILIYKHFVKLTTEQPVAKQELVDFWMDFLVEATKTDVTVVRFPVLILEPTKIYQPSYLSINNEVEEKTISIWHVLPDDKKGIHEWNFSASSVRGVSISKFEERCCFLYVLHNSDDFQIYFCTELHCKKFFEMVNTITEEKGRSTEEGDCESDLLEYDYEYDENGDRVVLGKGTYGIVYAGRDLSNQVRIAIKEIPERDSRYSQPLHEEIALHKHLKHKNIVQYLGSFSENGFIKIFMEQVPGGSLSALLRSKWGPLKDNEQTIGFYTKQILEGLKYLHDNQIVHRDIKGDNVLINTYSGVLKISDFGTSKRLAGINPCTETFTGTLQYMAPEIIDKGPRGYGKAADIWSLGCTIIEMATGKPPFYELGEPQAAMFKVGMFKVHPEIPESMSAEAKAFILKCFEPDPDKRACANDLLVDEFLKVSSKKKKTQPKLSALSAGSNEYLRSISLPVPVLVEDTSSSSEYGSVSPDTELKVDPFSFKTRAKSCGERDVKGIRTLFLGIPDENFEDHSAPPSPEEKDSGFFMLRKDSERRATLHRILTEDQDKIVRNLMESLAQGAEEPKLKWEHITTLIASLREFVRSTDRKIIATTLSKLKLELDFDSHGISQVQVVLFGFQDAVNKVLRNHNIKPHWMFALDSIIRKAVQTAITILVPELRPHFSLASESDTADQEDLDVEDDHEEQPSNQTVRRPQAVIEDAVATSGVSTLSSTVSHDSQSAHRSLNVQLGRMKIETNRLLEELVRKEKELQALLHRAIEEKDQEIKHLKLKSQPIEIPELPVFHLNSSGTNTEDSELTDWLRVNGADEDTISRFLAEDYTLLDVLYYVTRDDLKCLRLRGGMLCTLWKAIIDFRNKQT

In assay [12] the target is Calcium/calmodulin-dependent protein kinase type II subunit beta (Homo sapiens) (UniProt Q13554).
Assay [13] addresses Casein kinase I isoform gamma-2 (Homo sapiens) (UniProt P78368).
The target in assay [14] is Serine/threonine-protein kinase 16 (Homo sapiens) (UniProt O75716).
Assay [15] has as its target Serine/threonine-protein kinase PAK 6 (Homo sapiens) (UniProt Q9NQU5).
The target in assay [16] is Cyclin-dependent kinase 2 (Homo sapiens, UniProt P24941).
Assay [17] has as its target Glycogen synthase kinase-3 beta (Homo sapiens, UniProt P49841).
Assay [18] addresses Mitogen-activated protein kinase 6 (Homo sapiens) (UniProt Q16659).
The target in assay [19] is Dual specificity protein kinase CLK2 (Homo sapiens) (UniProt P49760).
In assay [20] the target is Ribosomal protein S6 kinase alpha-3 (Homo sapiens) (UniProt P51812).
The target of assay [21] is Serine/threonine-protein kinase pim-2 (Homo sapiens, UniProt Q9P1W9).

Serine/threonine-protein kinase 16 (Homo sapiens), sequence (O75716 whole entry): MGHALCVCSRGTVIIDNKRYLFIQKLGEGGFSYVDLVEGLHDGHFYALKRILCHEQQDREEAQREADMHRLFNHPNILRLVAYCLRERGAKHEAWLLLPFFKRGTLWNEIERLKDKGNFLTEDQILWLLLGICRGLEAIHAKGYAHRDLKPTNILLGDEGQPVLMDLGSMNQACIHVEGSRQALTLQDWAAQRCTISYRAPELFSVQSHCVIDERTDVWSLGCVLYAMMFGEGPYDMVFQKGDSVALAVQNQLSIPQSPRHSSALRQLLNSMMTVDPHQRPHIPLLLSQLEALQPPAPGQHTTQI
Serine/threonine-protein kinase pim-1 (Homo sapiens), sequence (P11309 whole entry, looked up): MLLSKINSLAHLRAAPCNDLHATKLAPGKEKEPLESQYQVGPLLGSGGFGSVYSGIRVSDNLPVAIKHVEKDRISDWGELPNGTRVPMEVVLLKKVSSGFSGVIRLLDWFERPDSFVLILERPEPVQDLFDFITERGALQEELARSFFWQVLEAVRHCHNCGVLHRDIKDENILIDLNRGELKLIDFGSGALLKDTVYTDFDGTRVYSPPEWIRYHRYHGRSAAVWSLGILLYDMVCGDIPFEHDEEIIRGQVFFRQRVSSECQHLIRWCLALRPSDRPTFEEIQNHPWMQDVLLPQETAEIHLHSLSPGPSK
TRAF2 and NCK-interacting protein kinase (Homo sapiens), sequence (Q9UKE5 whole entry, looked up): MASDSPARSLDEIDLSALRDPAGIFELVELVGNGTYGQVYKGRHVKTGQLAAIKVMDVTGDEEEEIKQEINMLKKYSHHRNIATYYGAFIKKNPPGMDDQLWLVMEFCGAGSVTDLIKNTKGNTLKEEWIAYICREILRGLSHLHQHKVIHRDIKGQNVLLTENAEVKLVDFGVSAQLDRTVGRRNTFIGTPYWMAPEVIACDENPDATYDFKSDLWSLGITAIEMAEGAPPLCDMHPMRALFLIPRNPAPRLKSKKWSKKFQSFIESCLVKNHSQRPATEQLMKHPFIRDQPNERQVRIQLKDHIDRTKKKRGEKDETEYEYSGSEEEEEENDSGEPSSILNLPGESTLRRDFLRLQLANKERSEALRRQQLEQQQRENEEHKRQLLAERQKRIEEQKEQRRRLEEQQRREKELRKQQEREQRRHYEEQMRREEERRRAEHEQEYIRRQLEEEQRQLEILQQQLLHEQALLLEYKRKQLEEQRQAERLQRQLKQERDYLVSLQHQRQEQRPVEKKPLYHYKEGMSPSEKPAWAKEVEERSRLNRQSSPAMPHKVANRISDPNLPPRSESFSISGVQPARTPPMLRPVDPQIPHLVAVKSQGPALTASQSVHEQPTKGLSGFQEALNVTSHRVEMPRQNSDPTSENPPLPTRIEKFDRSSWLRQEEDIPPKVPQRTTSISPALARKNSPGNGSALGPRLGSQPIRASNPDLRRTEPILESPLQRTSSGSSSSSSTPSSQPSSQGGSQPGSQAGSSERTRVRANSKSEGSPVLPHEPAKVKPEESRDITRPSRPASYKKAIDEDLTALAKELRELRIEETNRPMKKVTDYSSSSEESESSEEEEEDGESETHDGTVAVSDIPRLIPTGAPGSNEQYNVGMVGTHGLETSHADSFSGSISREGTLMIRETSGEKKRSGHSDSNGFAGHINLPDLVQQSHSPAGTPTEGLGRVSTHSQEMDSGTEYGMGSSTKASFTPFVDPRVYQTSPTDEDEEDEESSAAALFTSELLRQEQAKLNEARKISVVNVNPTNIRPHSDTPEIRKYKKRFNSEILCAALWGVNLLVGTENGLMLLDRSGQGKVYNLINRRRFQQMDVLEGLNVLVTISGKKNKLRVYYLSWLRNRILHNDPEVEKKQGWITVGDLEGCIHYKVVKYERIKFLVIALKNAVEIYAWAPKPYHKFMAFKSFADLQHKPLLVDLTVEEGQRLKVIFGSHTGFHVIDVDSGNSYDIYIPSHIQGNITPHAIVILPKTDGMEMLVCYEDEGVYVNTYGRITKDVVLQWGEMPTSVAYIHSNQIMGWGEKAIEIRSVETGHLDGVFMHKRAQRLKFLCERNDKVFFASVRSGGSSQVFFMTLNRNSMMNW
Glycogen synthase kinase-3 beta, sequence (P49841 whole entry, looked up): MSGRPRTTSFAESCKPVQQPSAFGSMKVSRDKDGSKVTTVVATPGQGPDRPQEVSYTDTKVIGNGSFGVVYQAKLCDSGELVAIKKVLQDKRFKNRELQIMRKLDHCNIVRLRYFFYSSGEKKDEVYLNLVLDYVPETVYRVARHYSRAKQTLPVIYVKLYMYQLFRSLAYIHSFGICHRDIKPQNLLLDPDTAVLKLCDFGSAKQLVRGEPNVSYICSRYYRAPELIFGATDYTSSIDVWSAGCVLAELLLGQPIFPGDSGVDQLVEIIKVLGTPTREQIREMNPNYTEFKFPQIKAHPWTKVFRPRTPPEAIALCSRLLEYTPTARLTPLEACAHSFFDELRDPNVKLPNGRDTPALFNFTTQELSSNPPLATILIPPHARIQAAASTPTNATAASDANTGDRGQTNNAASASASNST
Casein kinase I isoform gamma-1 (Homo sapiens), sequence (Q9HCP0 whole entry, looked up, canonical isoform): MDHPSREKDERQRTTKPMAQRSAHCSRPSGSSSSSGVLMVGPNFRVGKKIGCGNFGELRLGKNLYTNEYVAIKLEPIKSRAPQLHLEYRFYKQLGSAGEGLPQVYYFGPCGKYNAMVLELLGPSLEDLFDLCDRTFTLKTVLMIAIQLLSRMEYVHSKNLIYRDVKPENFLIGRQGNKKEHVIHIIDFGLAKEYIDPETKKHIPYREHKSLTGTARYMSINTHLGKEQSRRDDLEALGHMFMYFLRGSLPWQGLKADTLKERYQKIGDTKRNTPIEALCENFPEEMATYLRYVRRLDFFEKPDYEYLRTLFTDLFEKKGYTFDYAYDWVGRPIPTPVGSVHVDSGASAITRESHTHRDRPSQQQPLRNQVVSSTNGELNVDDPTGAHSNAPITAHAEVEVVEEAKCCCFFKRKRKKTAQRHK
Dual specificity protein kinase CLK2 (Homo sapiens), sequence (P49760 whole entry, looked up): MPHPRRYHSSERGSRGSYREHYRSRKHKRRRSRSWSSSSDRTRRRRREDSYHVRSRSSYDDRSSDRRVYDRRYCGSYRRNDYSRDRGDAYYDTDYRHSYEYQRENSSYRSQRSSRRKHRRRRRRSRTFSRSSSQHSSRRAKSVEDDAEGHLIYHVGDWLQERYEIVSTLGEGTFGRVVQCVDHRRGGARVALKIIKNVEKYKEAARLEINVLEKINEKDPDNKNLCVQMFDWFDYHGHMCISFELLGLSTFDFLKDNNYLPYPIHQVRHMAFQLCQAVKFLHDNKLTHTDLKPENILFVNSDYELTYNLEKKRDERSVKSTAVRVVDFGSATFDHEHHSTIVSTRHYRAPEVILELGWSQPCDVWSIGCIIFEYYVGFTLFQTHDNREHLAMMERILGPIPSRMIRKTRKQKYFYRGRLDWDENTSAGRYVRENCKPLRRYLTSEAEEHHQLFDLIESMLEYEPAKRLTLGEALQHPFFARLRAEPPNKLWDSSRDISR
Serine/threonine-protein kinase PAK 6 (Homo sapiens), sequence (Q9NQU5 whole entry, looked up): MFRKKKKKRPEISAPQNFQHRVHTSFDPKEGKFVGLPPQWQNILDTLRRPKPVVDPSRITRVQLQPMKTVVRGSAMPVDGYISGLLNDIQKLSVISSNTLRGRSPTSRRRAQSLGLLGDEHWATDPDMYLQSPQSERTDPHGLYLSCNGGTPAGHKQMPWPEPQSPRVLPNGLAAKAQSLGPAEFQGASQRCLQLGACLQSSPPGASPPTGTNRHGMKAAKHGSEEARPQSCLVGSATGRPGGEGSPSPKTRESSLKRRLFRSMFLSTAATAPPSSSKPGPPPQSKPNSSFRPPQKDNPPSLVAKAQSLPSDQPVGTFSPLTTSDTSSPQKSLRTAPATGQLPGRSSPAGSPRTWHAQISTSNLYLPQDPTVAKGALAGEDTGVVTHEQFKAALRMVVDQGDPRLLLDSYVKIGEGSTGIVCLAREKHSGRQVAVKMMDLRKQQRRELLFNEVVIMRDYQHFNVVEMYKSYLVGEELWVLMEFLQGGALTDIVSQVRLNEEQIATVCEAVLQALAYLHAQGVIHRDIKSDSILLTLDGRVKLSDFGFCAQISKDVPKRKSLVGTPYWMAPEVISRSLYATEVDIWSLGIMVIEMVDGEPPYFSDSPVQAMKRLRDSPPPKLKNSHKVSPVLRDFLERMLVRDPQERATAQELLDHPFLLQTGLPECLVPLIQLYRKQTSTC
Cyclin-dependent kinase-like 1 (Homo sapiens), sequence (Q00532 whole entry): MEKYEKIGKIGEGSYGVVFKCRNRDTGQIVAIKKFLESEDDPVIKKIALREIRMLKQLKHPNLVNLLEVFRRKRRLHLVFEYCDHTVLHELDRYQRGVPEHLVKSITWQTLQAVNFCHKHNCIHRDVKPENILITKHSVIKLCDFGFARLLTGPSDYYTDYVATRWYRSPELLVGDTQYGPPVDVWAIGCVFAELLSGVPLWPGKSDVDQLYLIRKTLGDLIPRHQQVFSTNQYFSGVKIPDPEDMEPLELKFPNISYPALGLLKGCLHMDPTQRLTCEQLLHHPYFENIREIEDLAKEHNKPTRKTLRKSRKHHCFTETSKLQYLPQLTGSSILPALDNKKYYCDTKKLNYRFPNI
Serine/threonine-protein kinase OSR1 (Homo sapiens), sequence (O95747 2-527 limits assumed): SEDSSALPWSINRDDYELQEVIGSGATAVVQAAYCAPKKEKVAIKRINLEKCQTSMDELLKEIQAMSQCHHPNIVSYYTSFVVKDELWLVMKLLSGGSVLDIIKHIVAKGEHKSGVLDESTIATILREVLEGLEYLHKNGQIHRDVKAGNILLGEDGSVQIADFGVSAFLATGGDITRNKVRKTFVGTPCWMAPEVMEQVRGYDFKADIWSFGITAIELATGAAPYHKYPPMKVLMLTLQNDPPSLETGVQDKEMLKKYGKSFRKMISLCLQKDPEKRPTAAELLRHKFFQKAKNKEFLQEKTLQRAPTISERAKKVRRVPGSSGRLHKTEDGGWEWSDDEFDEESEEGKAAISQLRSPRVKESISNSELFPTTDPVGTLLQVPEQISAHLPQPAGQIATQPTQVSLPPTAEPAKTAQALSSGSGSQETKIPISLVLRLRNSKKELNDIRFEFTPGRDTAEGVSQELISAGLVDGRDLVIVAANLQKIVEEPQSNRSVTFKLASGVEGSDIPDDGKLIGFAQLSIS

For the molecule `CCOC(=O)c1c(C)[nH]c(/C=C2\C(=O)Nc3ccccc32)c1C`, the thermal shift (ΔTm) in assay [1] was 4.5 °C; in assay [2], 0.2 °C; in assay [3], 0.5 °C; in assay [4], -0.1 °C; in assay [5], 0.4 °C; in [6], -0.6 °C. For the same molecule, the ΔTm in assay [7] was -5 °C; in assay [8], -0.1 °C; in assay [9], 0.1 °C; in [10], -11.4 °C; in assay [11], -1.4 °C; in assay [12], 0.7 °C. The thermal shift (ΔTm) in [13] is 0.4 °C; in [14] it was 0.6 °C; in assay [15] it was -0.5 °C; in assay [16], -3.4 °C; in [17], 2.3 °C; in assay [18] it was -0.1 °C. For the same molecule, the ΔTm was 0.6 °C in [19], 0.1 °C in assay [20] and 0.1 °C in assay [21].

For the molecule `Nc1n[nH]c2nc3ccccc3nc12` [QUINOXALINE1], the ΔTm was found to be 3.5 °C in assay [1]; 0.7 °C in [2]; 0.2 °C in assay [3]; 0.7 °C in assay [4]; 0.7 °C in assay [5]; 0.7 °C in assay [6]. The ΔTm was 0.6 °C in assay [7]; -0.8 °C in assay [8]; 0.7 °C in assay [9]; 0.7 °C in assay [10]; 2.6 °C in assay [11]; 0.3 °C in assay [12]. For the same molecule, the ΔTm in [13] came out at 0.4 °C; in assay [14], 1.1 °C; in assay [15] it was 0.6 °C; in assay [16], 1.3 °C; in assay [17] it was 2.2 °C; in [18], 0.4 °C. Besides, the ΔTm turned out to be 1.4 °C in [19], 0.9 °C in assay [20] and 1.3 °C in assay [21].

As for `NC(=O)c1ccc2[nH]c(-c3ccc(Oc4ccc(Cl)cc4)cc3)nc2c1`, the ΔTm in [1] is 0.7 °C; in assay [2] it was 0.5 °C; in [3] it was 0.1 °C; in assay [4], 0.8 °C; in assay [5], -1.6 °C; in assay [6], 0.1 °C. The ΔTm in assay [7] is 0.6 °C; in assay [8] it was 0.4 °C; in assay [9], -0.1 °C; in assay [10] it was 1.7 °C; in [11] it was 1 °C; in assay [12], 0.5 °C. For the same molecule, the ΔTm in [13] is 1.6 °C; in [14] it was 4.7 °C; in assay [15], -0.8 °C; in [16], -0.7 °C; in assay [17] it was 1 °C; in assay [18], 0.5 °C. Further, the ΔTm in assay [19] was -0.4 °C; in assay [20], 1 °C; in assay [21], 1 °C.

Regarding `COc1cc(OC)c(/C=C2\C(=O)Nc3ccccc32)c(OC)c1`, the ΔTm in assay [1] was -0.3 °C; in assay [2] it was 2.2 °C; in assay [3], -0.5 °C; in assay [4], 0.2 °C; in [5], 0.8 °C; in assay [6], -0.1 °C. Moreover, the ΔTm was 0.3 °C in [7]; -1 °C in [8]; 0 °C in [9]; 0.5 °C in assay [10]; 0 °C in assay [11]; 0.1 °C in [12]. The ΔTm in assay [13] was 0.7 °C; in [14], 0.2 °C; in assay [15], 0 °C; in [16] it was 0.5 °C; in assay [17], 0.4 °C; in assay [18], -0.2 °C. In addition, the figures for the ΔTm in assay [19], in assay [20] and in [21] were 0.3 °C, 0.1 °C and 0.5 °C, respectively.

Regarding `O=C1NC(=O)C(c2cn(CCCn3ccnc3)c3ccccc23)=C1Nc1ccccc1`, the ΔTm was 0.5 °C in assay [1]; 0.4 °C in [2]; 0.3 °C in assay [3]; 0.2 °C in assay [4]; -0.7 °C in assay [5]; 1.7 °C in assay [6]. Moreover, the ΔTm in assay [7] is 0.9 °C; in assay [8] it was 3.1 °C; in [9], 2 °C; in [10], 0.6 °C; in assay [11] it was 0.6 °C; in assay [12], 0.7 °C. For the same molecule, the ΔTm in assay [13] is 1 °C; in assay [14] it was 0.6 °C; in assay [15] it was -0.4 °C; in [16] it was 0.4 °C; in [17] it was 8.4 °C; in assay [18], 0.6 °C. Besides, the ΔTm came out at 4.3 °C in [19], 6.3 °C in assay [20] and 1.5 °C in assay [21].

On to `O=c1c2ccccc2[nH]c(=S)n1CCN1CCC(=C(c2ccc(F)cc2)c2ccc(F)cc2)CC1` [DIACYLGLYCEROL KINASE INHIBITOR II], for which the ΔTm in assay [1] was 0.5 °C; in assay [2], -0.2 °C; in assay [3], -0.5 °C; in assay [4] it was 2.4 °C; in [5] it was 0 °C; in [6] it was -0.6 °C. Further, the ΔTm in assay [7] is -0.4 °C; in [8], 0 °C; in assay [9] it was 2.4 °C; in assay [10] it was -0.2 °C; in assay [11], -0.7 °C; in assay [12] it was -1 °C. In addition, the ΔTm in assay [13] is 0.5 °C; in [14], 0.3 °C; in assay [15], -0.1 °C; in assay [16], 0.9 °C; in assay [17] it was 1.9 °C; in assay [18] it was -0.1 °C. Besides, the results for the ΔTm in assay [19], in [20] and in assay [21] were 0.3 °C, 0.3 °C and 1.4 °C, respectively.

What is called ΔTm is the shift of the melting midpoint relative to a reference.
